According to article PMC3433420 (PLoS ONE, 2012):
pKd: −log10 of the molar value. Read-outs that look alike come from different tables or passages of the source. Blank lines part the entries; values can stand above or below the substance they belong to. Non-standard residues stand in square brackets, D forms with d. No end group written: not given here. pY = N[C@@H](Cc1ccc(OP(=O)(O)O)cc1)C(=O)O

What was measured:
[1] = test system: SH2 and PTB domains; assay: Sum of relative binding free energies (ΔΔG) from FP KDs, relative to 20 µM threshold; parameters: species or system human; unit not given here
Method: In order to further define and classify commonalities and differences among the ErbB family, the relative binding free energy (FE) of each SH2 domain was summed across all phosphosites on each receptor relative to the assay detection threshold of 20 µM according to Equation (3): [drawing 10] (3)

[2] = biological target: SH2 and PTB domains; settings: cited from earlier work
Source text: Supplement pone.0044471.s022.xlsx, sheet "Most recent PM interactions" | column: Kd || Supplement pone.0044471.s022.xlsx, sheet "All original PM interactions" | column: Kd

[3] = protein ABL2, ref Kaushansky et al. Chem and Biol 2008
[4] = protein ABL2, ref Jones et al. 2006 / Kaushansky et al. Mol Biosys 2008 / Kaushansky et al. Chem and Biol 2008

- GO_SumDDG ([1]; GO group Adaptors): 1.375
- GO_SumDDG ([1]; GO group Chromatin Remodeling): 0
- GO_SumDDG ([1]; GO group Cytoskeletal Regulation): 3.549
- GO_SumDDG ([1]; GO group Kinases): 3.776
- GO_SumDDG ([1]; GO group Phosphatases): 2.349
- GO_SumDDG ([1]; GO group Phosphatidyl Inositol Kinases): 12.5484
- GO_SumDDG ([1]; GO group Phosphatidyl Inositol Phosphatases): 1.508
- GO_SumDDG ([1]; GO group Phospholipases): 8.299
- GO_SumDDG ([1]; GO group RAS GEFs): 3.469
- GO_SumDDG ([1]; GO group RAS GTPases): 10.8637
- GO_SumDDG ([1]; GO group RHO GEFs): 4.394
- GO_SumDDG ([1]; GO group Scaffolds): 3.618
- GO_SumDDG ([1]; GO group Signal Regulation): 2.5932
Substance: ERBB3 (SEQG[pY]EEMRAFQD)

Substance: PPPApYTPMSGNQd [ErbB4 pY1056, N-terminally rhodamine-labeled 13-mer phosphopeptide]
- pKd [2, 3]: 6.18
- pKd ([2]; protein PIK3R1-N, ref Kaushansky et al. Chem and Biol 2008): 6.27
- pKd ([2]; protein PIK3R1-NC, ref Kaushansky et al. Chem and Biol 2008): 5.84
- pKd ([2]; protein PIK3R2-N, ref Kaushansky et al. Chem and Biol 2008): 6.70
- pKd ([2]; protein PIK3R2-NC, ref Kaushansky et al. Chem and Biol 2008): 6.34
- pKd ([2]; protein PIK3R3-N, ref Kaushansky et al. Chem and Biol 2008): 6.05
- pKd ([2]; protein PIK3R3-NC, ref Kaushansky et al. Chem and Biol 2008): 6.24

Substance: PSSGpYMPMNQGNd [ErbB3 pY1054, N-terminally rhodamine-labeled 13-mer phosphopeptide]
- pKd ([2]; Protein ABL2, original PM interactions, ref Jones et al. 2006 / Kaushansky et al. Chem and Biol 2008): 6.77
- pKd ([2]; Protein ITK, original PM interactions, ref Jones et al. 2006 / Kaushansky et al. Chem and Biol 2008): 5.78
- pKd ([2]; Protein PIK3R1-C, original PM interactions, ref Jones et al. 2006 / Kaushansky et al. Chem and Biol 2008): 6.00
- pKd ([2]; Protein PIK3R1-N, original PM interactions, ref Jones et al. 2006 / Kaushansky et al. Chem and Biol 2008): 6.24
- pKd ([2]; Protein PIK3R1-NC, original PM interactions, ref Jones et al. 2006 / Kaushansky et al. Chem and Biol 2008): 6.96
- pKd ([2]; Protein PIK3R2-N, original PM interactions, ref Jones et al. 2006 / Kaushansky et al. Chem and Biol 2008): 6.00
- pKd ([2]; Protein PIK3R2-NC, original PM interactions, ref Jones et al. 2006 / Kaushansky et al. Chem and Biol 2008): 7.05
- pKd ([2]; Protein PIK3R3-C, original PM interactions, ref Jones et al. 2006 / Kaushansky et al. Chem and Biol 2008): 6.96
- pKd ([2]; Protein PIK3R3-N, original PM interactions, ref Jones et al. 2006 / Kaushansky et al. Chem and Biol 2008): 6.00
- pKd ([2]; Protein PIK3R3-NC, original PM interactions, ref Jones et al. 2006 / Kaushansky et al. Chem and Biol 2008): 7.30
- pKd ([2]; Protein SHB, original PM interactions, ref Jones et al. 2006 / Kaushansky et al. Chem and Biol 2008): 5.86
- pKd ([2]; Protein SHC1-PTB, original PM interactions, ref Jones et al. 2006 / Kaushansky et al. Chem and Biol 2008): 5.70
- pKd ([2]; Protein SHF, original PM interactions, ref Jones et al. 2006 / Kaushansky et al. Chem and Biol 2008): 5.91
- pKd ([2]; Protein SYK-C, original PM interactions, ref Jones et al. 2006 / Kaushansky et al. Chem and Biol 2008): 5.93

Substance: QHPDpYLQEYSTKd [ErbB4 pY1258, N-terminally rhodamine-labeled 13-mer phosphopeptide]
- pKd ([2]; protein ABL2, all original PM interactions, ref Jones et al. 2006 / Kaushansky et al. Chem and Biol 2008): 6.06
- pKd ([2]; protein PIK3R3-NC, all original PM interactions, ref Jones et al. 2006 / Kaushansky et al. Chem and Biol 2008): 5.70
- pKd ([2]; protein PLCG1-C, all original PM interactions, ref Jones et al. 2006 / Kaushansky et al. Chem and Biol 2008): 5.70
- pKd ([2]; protein PLCG1-NC, all original PM interactions, ref Jones et al. 2006 / Kaushansky et al. Chem and Biol 2008): 5.70
- pKd ([2]; protein RASA1-N, all original PM interactions, ref Jones et al. 2006 / Kaushansky et al. Chem and Biol 2008): 5.70
- pKd ([2]; protein SHC1-PTB, all original PM interactions, ref Jones et al. 2006 / Kaushansky et al. Chem and Biol 2008): 5.70
- pKd ([2]; protein SLA, all original PM interactions, ref Jones et al. 2006 / Kaushansky et al. Chem and Biol 2008): 5.70
- pKd ([2]; protein SYK-NC, all original PM interactions, ref Jones et al. 2006 / Kaushansky et al. Chem and Biol 2008): 5.70
- pKd ([2]; protein VAV2, all original PM interactions, ref Jones et al. 2006 / Kaushansky et al. Chem and Biol 2008): 5.70
- pKd ([2]; protein VAV2, ref Jones et al. 2006 / Kaushansky et al. Chem and Biol 2008): 6.11

Substance: QNPVpYHNQPLNPd [ErbB1 pY1110, N-terminally rhodamine-labeled 13-mer phosphopeptide]
- pKd ([2]; protein ABL1, ref Jones et al. 2006 / Kaushansky et al. Mol Biosys 2008 / Kaushansky et al. Chem and Biol 2008): 6.28
- pKd [2, 4]: 7.22
- pKd ([2]; protein GRB2, ref Jones et al. 2006 / Kaushansky et al. Mol Biosys 2008 / Kaushansky et al. Chem and Biol 2008): 5.70
- pKd ([2]; protein NCK2, ref Jones et al. 2006 / Kaushansky et al. Mol Biosys 2008 / Kaushansky et al. Chem and Biol 2008): 5.70
- pKd ([2]; protein SHC1-PTB, ref Jones et al. 2006 / Kaushansky et al. Mol Biosys 2008 / Kaushansky et al. Chem and Biol 2008): 6.49

Substance: QSLLSPSSGpYMPMNQGN [ErbB3 1054]
- pKd ([2]; Protein ABL2, most recent PM interactions, ref Jones et al. 2006 / Kaushansky et al. Chem and Biol 2008): 6.48
- pKd ([2]; Protein ITK, most recent PM interactions, ref Jones et al. 2006 / Kaushansky et al. Chem and Biol 2008): 5.78
- pKd ([2]; Protein PIK3R1-C, most recent PM interactions, ref Jones et al. 2006 / Kaushansky et al. Chem and Biol 2008): 6.00
- pKd ([2]; Protein PIK3R1-N, most recent PM interactions, ref Jones et al. 2006 / Kaushansky et al. Chem and Biol 2008): 6.24
- pKd ([2]; Protein PIK3R1-NC, most recent PM interactions, ref Jones et al. 2006 / Kaushansky et al. Chem and Biol 2008): 6.04
- pKd ([2]; Protein PIK3R2-N, most recent PM interactions, ref Jones et al. 2006 / Kaushansky et al. Chem and Biol 2008): 6.05
- pKd ([2]; Protein PIK3R2-NC, most recent PM interactions, ref Jones et al. 2006 / Kaushansky et al. Chem and Biol 2008): 7.05
- pKd ([2]; Protein PIK3R3-C, most recent PM interactions, ref Jones et al. 2006 / Kaushansky et al. Chem and Biol 2008): 6.96
- pKd ([2]; Protein PIK3R3-N, most recent PM interactions, ref Jones et al. 2006 / Kaushansky et al. Chem and Biol 2008): 5.88
- pKd ([2]; Protein PIK3R3-NC, most recent PM interactions, ref Jones et al. 2006 / Kaushansky et al. Chem and Biol 2008): 6.31
- pKd ([2]; Protein SHB, most recent PM interactions, ref Jones et al. 2006 / Kaushansky et al. Chem and Biol 2008): 5.86
- pKd ([2]; Protein SHF, most recent PM interactions, ref Jones et al. 2006 / Kaushansky et al. Chem and Biol 2008): 5.91
- pKd ([2]; Protein SYK-C, most recent PM interactions, ref Jones et al. 2006 / Kaushansky et al. Chem and Biol 2008): 5.93

Substance: RDPHpYQDPHSTAd [ErbB1 pY1125, N-terminally rhodamine-labeled 13-mer phosphopeptide]
- pKd [2, 4]: 6.89
- pKd ([2]; protein BMX, ref Jones et al. 2006 / Kaushansky et al. Mol Biosys 2008 / Kaushansky et al. Chem and Biol 2008): 5.97
- pKd ([2]; protein CRK, ref Jones et al. 2006 / Kaushansky et al. Mol Biosys 2008 / Kaushansky et al. Chem and Biol 2008): 5.91
- pKd ([2]; protein CRKL, ref Jones et al. 2006 / Kaushansky et al. Mol Biosys 2008 / Kaushansky et al. Chem and Biol 2008): 5.70
- pKd ([2]; protein RASA1-N, ref Jones et al. 2006 / Kaushansky et al. Mol Biosys 2008 / Kaushansky et al. Chem and Biol 2008): 5.88
- pKd ([2]; protein SHB, ref Jones et al. 2006 / Kaushansky et al. Mol Biosys 2008 / Kaushansky et al. Chem and Biol 2008): 6.00
- pKd ([2]; protein SYK-NC, ref Jones et al. 2006 / Kaushansky et al. Mol Biosys 2008 / Kaushansky et al. Chem and Biol 2008): 6.01
- pKd ([2]; protein TNS1, ref Jones et al. 2006 / Kaushansky et al. Mol Biosys 2008 / Kaushansky et al. Chem and Biol 2008): 5.89
- pKd ([2]; protein YES1, ref Jones et al. 2006 / Kaushansky et al. Mol Biosys 2008 / Kaushansky et al. Chem and Biol 2008): 6.42

Substance: STQRpYSADPTVFd [ErbB4 pY1128, N-terminally rhodamine-labeled 13-mer phosphopeptide]
- pKd ([2]; protein SRC, ref Kaushansky et al. Chem and Biol 2008): 6.30

Substance: THDPSPLQRpYSEDPTVPd [ErbB2 1112]
- pKd ([2]; Protein BLK, most recent PM interactions, ref Kaushansky et al. Chem and Biol 2008): 6.12
- pKd ([2]; Protein PLCG2-NC, most recent PM interactions, ref Kaushansky et al. Chem and Biol 2008): 5.97

Substance: VSVPpYRAPTSTI [ErbB4 pY1081, N-terminally rhodamine-labeled 13-mer phosphopeptide]
- pKd [2, 3]: 5.91
- pKd ([2]; protein CRKL, ref Kaushansky et al. Chem and Biol 2008): 5.91
